# Measured values published in ChEMBL document CHEMBL5728032, “Fluorine-containing triazolopyridine, and manufacturing method, pharmaceutical composition, and application thereof” (2020).
# Target: Metabotropic glutamate receptor 2 (Homo sapiens, UniProt Q14416)
# Assay: In Vitro Activity Test for mGluR2: Experimental materials: HEK/mGluR2 cell line ([…] transfected HEK cell line), DMEM (FBS) medium, positive control LY487379 (purchased from sigma; CAS: to 352317-17-1)Experimental instrument: FLIPR Tetra real-time fluorescence imaging analysis systemExperimental method: HDB Fluo-8 calcium fluorescence detection methodExperimental principle: HDB Fluo-8 calcium ion fluorescence detection method is a fast, simple and reliable fluorescence detection method of intracellular calcium concentration changes. The Fluo 8-AM fluorescent dye is an acetyl methyl ester derivative of Fluo 8 which can easily penetrate into the cell membrane by culture. The fluorescent dye in the cell will be hydrolyzed by intracellular esterase, the resulting Fluo 8 as a polar molecule, cannot easily pass through the lipid bimolecular membrane, and will be retained in the cell, and combine with calcium (Ca2+) to produce fluoresces.Cells expressing GPCR receptor protein (mGluR2) were first calibrated with a calcium ion sensitive fluorescent probe and then stimulated with the compound. After stimulation, the receptor activates the calcium ion mobilization, and the fluorescent probe captures the calcium ion to induce the fluorescence signal. The signal can be read by a fluoroscopy plate. The fluorescent plate reader contains a sample addition for compound addition, thus enabling the change of the fluorescence value of the compound be read in real time.
# Type: cell-based
# Chain of Metabotropic glutamate receptor 2 (Q14416 whole entry): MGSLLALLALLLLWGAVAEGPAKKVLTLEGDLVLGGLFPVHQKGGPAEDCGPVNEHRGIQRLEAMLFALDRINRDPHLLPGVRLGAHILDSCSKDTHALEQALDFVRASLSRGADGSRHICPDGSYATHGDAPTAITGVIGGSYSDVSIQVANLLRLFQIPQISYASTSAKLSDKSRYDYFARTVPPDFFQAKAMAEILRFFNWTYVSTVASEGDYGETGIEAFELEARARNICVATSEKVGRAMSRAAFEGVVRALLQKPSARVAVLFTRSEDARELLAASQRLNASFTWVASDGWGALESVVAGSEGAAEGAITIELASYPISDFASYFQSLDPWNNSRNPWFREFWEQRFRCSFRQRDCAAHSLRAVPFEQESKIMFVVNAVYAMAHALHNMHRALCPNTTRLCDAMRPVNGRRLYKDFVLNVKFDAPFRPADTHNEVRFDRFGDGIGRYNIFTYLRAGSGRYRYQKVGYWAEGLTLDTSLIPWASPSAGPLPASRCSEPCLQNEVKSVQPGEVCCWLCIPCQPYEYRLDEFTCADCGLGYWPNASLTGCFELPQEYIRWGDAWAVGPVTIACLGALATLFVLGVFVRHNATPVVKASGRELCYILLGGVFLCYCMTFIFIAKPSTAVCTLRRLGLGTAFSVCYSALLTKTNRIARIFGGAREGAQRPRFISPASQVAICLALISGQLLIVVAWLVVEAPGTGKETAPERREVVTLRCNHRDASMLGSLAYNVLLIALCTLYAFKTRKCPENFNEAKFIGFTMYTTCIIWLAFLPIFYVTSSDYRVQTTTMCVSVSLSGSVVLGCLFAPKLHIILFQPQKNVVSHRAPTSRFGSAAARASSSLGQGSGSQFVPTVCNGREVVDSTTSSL
row,EC50,Structure (SMILES)
1,910 nM,COC(=O)c1ccc(-c2ccn3c(CC4CC4)nnc3c2Cl)c(F)c1
2,890 nM,Clc1c(-c2ccc3c(c2)OCO3)ccn2c(CC3CC3)nnc12
3,970 nM,c1cc2c(cc1-c1ccn3c(CC4CC4)nnc3c1)OCO2
